In patent US20100062441A1, “C-MET MUTATIONS AND USES THEREOF” (priority 2007, published 2010):

Legend:
[1] = tested on: MM-AN cells; assay: Apoptosis by propidium iodide FACS (sub G0/G1); type: cell-based, human
Protocol: MM-AN, MU, PM-WK, MM-RU, MM-MC, MM-LH and RPM-EP melanoma cells were grown in MEM (Cellgro, Hernon, Va.) with 10% FBS (Gemini Bioproducts, Woodland, Calif.). Triplicate melanoma cell cultures were grown in MEM with 10% FBS and treated with a final concentration of 5-10 μM of SU11274 or an equal volume of diluent (DMSO) as a control for 96 hrs. Cells were collected, stained with propidium iodide and analyzed with a Becton Dickinson FACS Scan and Cell Quest software.
SU11274, which is a highly specific inhibitor of c-Met, was tested on the six melanoma cell lines. […] By 96 hrs between 12 to 58% of cells in different melanoma cell lines appeared in the sub G0/G1 region of the FACS profile indicating apoptosis.

[2] = tested on: SCCHN cell lines; assay: Viability/growth by MTT and/or Cyquant; type: cell-based, human; conditions: several cell lines
From the text: Specific inhibition of c-Met by small molecule inhibitors can also be determined. […] Both SU11274 (1st generation) and Compound X (3rd generation) were used to test for their respective inhibitory effects on SCCHN cell lines.

[3] = tested on: MM-RU melanoma cells; assay: Differentiation of melanoma cells (morphology); type: cell-based, human; conditions: 72 hrs with 5 μM SU11274
From the text: (§1) Thus SU11274 could induce a differentiated phenotype in a wide variety of melanoma cells melanized, amelanotic, less and more differentiated melanoma cells.

[4] = tested on: MM-MC melanoma cells; assay: Differentiation of melanoma cells (morphology); type: cell-based, human; conditions: 72 hrs with 5 μM SU11274
From the text: as §1

[5] = tested on: MU melanoma cells; assay: Differentiation of melanoma cells (morphology); type: cell-based, human; conditions: 72 hrs with 5 μM SU11274
Protocol: as §1
The effect of si RNA against c-Met was also studied on the proliferation and differentiation of MU melanoma cells. […] SU11274 at 5 μM and 10 μM inhibited the growth of melanoma cells by 72% and 88% respectively. The inhibitory effect of SU11274 was more pronounced than si RNA since SU11274 is a potent and selective inhibitor of c-Met activity and function. […] Similar to SU11274 c-Met Si RNA 12 hrs after transfection induced an increase in MITF (4 fold) and several of the melanocyte differentiation antigens tyrosinase (4-fold), gp-100 (2-fold) and MART-1 (2-fold) which have been targets for immunotherapy. The increase in the level of various differentiation proteins was determined by densiometric anaylsis after treatment with c-Met si RNA.

[6] = tested on: MITF, tyrosinase, gp-100, MART-1; assay: Immunoblotting of melanoma differentiation proteins, densiometric analysis; type: cell-based, human; conditions: 12 hrs after treatment; 10 μM SU11274
From the text: SU11274: [(3Z)-N-(3-chlorophenyl)-3-({3,5-dimethyl-4-[(4-methylpiperazin-1-yl)carbonyl]-1H-pyrrol-2-yl}methylene)-N-methyl-2-oxo-2,3-dihydro-1H-indole-5-sulfonamide] (obtained from Pfizer Inc, San Diego, Calif.) was suspended in DMSO and kept in small aliquots at −20 degrees. Phosphospecific antibody to pY1230/1234/1235 (autophosphorylation site) was obtained from Biosource International, Camarillo, Calif. Phosphospecific antibodies for pS473 on AKT and pT421/pS424 on p70 S6-Kinase were obtained from Cell Signaling, Beverly, Mass. Total c-Met and BCLXL antibodies were obtained from Santa Cruz Biotechnology, Santa Cruz, Calif. and β-actin from Sigma Aldrich (St. Louis, Mo.). For detecting melanoma differentiation proteins the following antibodies were used anti-tyrosinase monoclonal antibody (clone T311, Nova-castra, New Castle upon Tyne, UK), anti-gp-100 monoclonal antibody (MO 634, Dako corporation, Carpinteria, Calif.) and anti-MART-1/Melan-A monoclonal antibody (clone M2-7C10, Signet, Dedham, Mass.).
Cells were lysed in lysis buffer containing 20 mM Tris, pH 8.0; 150 mM NaCl, 10% glycerol, 1% NP40, 0.42% NaF, 1 mM PMSF, 1 mM Na3V04, 10 μl/ml Protease inhibitor cocktail (Sigma Aldrich, St. Louis, Mo.) as described previously (Maulik et al., Clin Cancer Res, 8: 620-7 (2002)). Cell lysates were separated by 7.5% or 10% SDS-PAGE electrophoresis under reducing conditions. Proteins were transferred to an immobilization membrane (Bio-Rad Laboratories, Hercules, Calif.) and immunoblotted using the enhanced chemiluminescence technique (PerkinElmer Life and analytical Sciences, Torrence, Calif.).
siRNA against c-Met was obtained from Dharmacon (Lafayette, Colo.). Briefly four pooled SiRNA duplexes were transiently transfected into MU melanoma cells by the Dharmacon protocol utilizing Oligofectamine obtained from Invitrogen (Carlsbad, Calif.). Mock transfection was done in parallel using SignalSilence control SiRNA (Cell Signaling Technology) as negative control. For studies on the effect of Si RNA on differentiation proteins MU melanoma cells were transfected with Si RNA as described above and cell lysates were prepared after 12 hrs and immunoblotting performed as described above.
It was hypothesized that SU11274 could not only induce a differentiated phenotype, but also MITF, tyrosinase and other melanocyte associated differentiation markers. […] The increase in the level of various differentiation proteins was determined by densiometric anaylsis after treatment with 10 μM SU11274.
The effect of si RNA against c-Met was also studied on the proliferation and differentiation of MU melanoma cells. […] The increase in the level of various differentiation proteins was determined by densiometric anaylsis after treatment with c-Met si RNA.

[7] = tested on: SCCHN cell lines; assay: Cell motility and migration; type: cell-based, human
From the text: c-Met is known to have a significant role in cell scattering and possibly metastatic spread (Ren et al., Clin Cancer Res, 11, (17), 6190-7 (2005) and Endo, et al., Hum Pathol, 37, (8), 1111-6 (2006)). Here, the effects of c-Met suppression on cell motility and migration as a surrogate marker for metastatic spread was investigated. […] The degree of downstream modulation varied by cell line.

[8] = tested on: melanoma cell lines that expressed c-Met; assay: Cell growth analysis (cell counting); type: cell-based; conditions: Homo sapiens; 96 hrs, MEM with 10% serum
Protocol: For measuring the effect of SU11274 on growth of melanoma cells, MM-AN, MU, PM-WK, MM-RU, MM-MC and RPM-EP cells were plated at 6×10^4 cells in 60 mm dishes in MEM with 10% serum. After 24 hrs different concentrations of SU11274 were added and after 96 hrs cells were trypsinized and counted in a cell counter (Beckman Coulter). Each data point was repeated in triplicate.

With `Cc1[nH]c(/C=C2\C(=O)Nc3ccc(S(=O)(=O)N(C)c4cccc(Cl)c4)cc32)c(C)c1C(=O)N1CCN(C)CC1` [SU11274, (3Z)-N-(3-chlorophenyl)-3-({3,5-dimethyl-4-[(4-methylpiperazin-1-yl)carbonyl]-1H-pyrrol-2-yl}methylene)-N-methyl-2-oxo-2,3-dihydro-1H-indole-5-sulfonamide] the apoptosis [1] was “No apoptosis could be detected”, the viability/growth [2] was “markedly decreased” and the “change in morphology / differentiated phenotype” value [3] was “became bipolar, tripolar or multipolar”. For the same compound, the “change in morphology / differentiated phenotype” value [4] was “became bipolar, tripolar or multipolar”, the “change in morphology / differentiated phenotype” value [5] was “became very dendritic and differentiated” and the “increase in levels of MART-1” value [6] was 2 fold. For the same compound, the “increase in levels of MITF” value [6] was 3 fold, the “increase in levels of gp-100” value [6] was 6 fold and the “increase in levels of tyrosinase” value [6] was 12 fold. The cell motility [7] was “marked decrease” and the IC50 [8] was 1000 to 2500 nM.
